Experimental data from patent US20260072021A1, “SYSTEM, METHOD, AND APPARATUS FOR MICRONEEDLE ARRAY-BASED IMM[…] MULTIPLEX DETECTION OF BIOMARKERS” (The General Hospital Corporation, priority 2022, published 2026).

Key:
[1] = Pharmacokinetic study: blood concentrations of cocaine and BZE in mice after IP cocaine (LC-MS); assay type: in vivo; conditions: cocaine 1.5 mg/Kg IP, blood sampled at 0, 0.5, 1 and 5 min post-injection
Method: Panel A. Time-dependent blood concentrations of COC and BZE in mice receiving 1.5 mg/Kg cocaine per mouse via IP injection. Panel B. Experimental setup of in vivo detection of circulating COC/BZE using MN-based aptasensor on a B6 black mouse. Panel C. Time-dependent fluorescence intensity of an individual MN that pierces into the mouse skin.
An optical fiber of 500 um in diameter was engineered including 6 emission light collection fibers each at 125 um in diameter, surrounding the single excitation light fiber at the center (FIGS. 13a & 13c). The excitation laser (532-589 nm) is administered directly to the upper dermis via the fiber and transparent MNA to induce skin capillary leakage or extravasation of biomarkers. […] To validate this, cocaine was IP administered at 1.5 mg/Kg per mouse and blood was sampled at 0, 0.5, 1, and 5 min, post-injection. […] When the MNA aptasensor was inserted into the black B6 mice receiving 1.5 mg/kg cocaine intraperitoneally and illuminated with 532 nm laser on the dorsal skin (FIG. 15B), a significant growth of fluorescence intensity as a function of time due to displacement of QDNA by cocaine was clearly seen on individual microneedles (FIG. 15C), confirming the ability of the aptasensor to detect the illicit drug in real time. […]

[2] = humans; cited from earlier work

CN1[C@H]2CC[C@@H]1[C@@H](C(=O)O)[C@@H](OC(=O)c1ccccc1)C2 [BZE, benzoylecgonine]
blood concentration over time [1]: increasing sharply at the first 1 min and then stayed in plateau

COC(=O)[C@H]1[C@@H](OC(=O)c2ccccc2)C[C@@H]2CC[C@H]1N2C [cocaine]
blood concentration over time [1]: slightly increased over the 5 min
cocaine concentration in blood [2]: 0.06 to 0.1 mg/L
